What was measured:
Experiment in all cases: relative viability (nuclei count vs DMSO), 5 days (fraction); higher = more cells survive
[1] = compound: N=C1NC(=O)/C(=C/c2ccc(O)cc2)S1 [Mirin] + Nc1ncn([C@H]2C[C@H](O)[C@@H](CO)O2)c(=O)n1 [Decitabine] (partner 2 µM)
Summary of the method: (§1)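 Dosing by pin tool came one day after lung cancer cell lines were seeded in 1536-well plates, using either one drug or a fixed anchor-drug dose plus five library-drug doses (not always all listed) in √10 steps. After 5 days, nuclei were counted on 4× images. Relative viability is treated-well nuclei count divided by vehicle-well nuclei count, and values are medians of duplicate plates.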

[2] = compound: CCn1c(-c2nonc2N)nc2cnc(Oc3cccc(NC(=O)c4ccc(OCCN5CCOCC5)cc4)c3)cc21 + CS(=O)(=O)CCNCc1ccc(-c2ccc3ncnc(Nc4ccc(OCc5cccc(F)c5)c(Cl)c4)c3c2)o1 [Lapatinib] (partner 2 µM)
Summary of the method: as §1

[3] = compound: CCC1=CN=CN=C1N2CCN(CC2)CC3=NC4=C(N3)C=C(C=C4)C(F)(F)F + CCNC(=O)c1noc(-c2cc(C(C)C)c(O)cc2O)c1-c1ccc(CN2CCOCC2)cc1 [Luminespib] (partner 0.01 µM)
Summary of the method: as §1

[4] = compound: CCn1c(-c2nonc2N)nc2cnc(Oc3cccc(NC(=O)c4ccc(OCCN5CCOCC5)cc4)c3)cc21 + Nc1nc2[nH]cc(CCc3ccc(C(=O)N[C@@H](CCC(=O)O)C(=O)O)cc3)c2c(=O)[nH]1 [Pemetrexed] (partner 0.2 µM)
Summary of the method: as §1

Cell Line UMC-11 has a relative viability ([1]; first compound 0.25 µM) of 0.533, a relative viability ([1]; first compound 2.5 µM) of 0.572 and a relative viability ([1]; first compound 7.906 µM) of 0.54. It also gave a relative viability ([1]; first compound 25 µM) of 0.418, a relative viability ([2]; first compound 0.04 µM) of 0.959 and a relative viability ([2]; first compound 0.1265 µM) of 0.833. For the same cell line, the relative viability ([2]; first compound 0.4 µM) was 0.509, the relative viability ([2]; first compound 1.265 µM) was 0.223 and the relative viability ([2]; first compound 4 µM) was 0.258. For the same cell line, the relative viability ([3]; first compound 0.04 µM) was 0.974, the relative viability ([3]; first compound 0.1265 µM) was 1.05 and the relative viability ([3]; first compound 0.4 µM) was 0.917. It also gave a relative viability ([3]; first compound 1.265 µM) of 0.902, a relative viability ([3]; first compound 4 µM) of 0.746 and a relative viability ([4]; first compound 0.04 µM) of 0.813. For the same cell line, the relative viability ([4]; first compound 0.1265 µM) was 0.596, the relative viability ([4]; first compound 0.4 µM) was 0.613 and the relative viability ([4]; first compound 1.265 µM) was 0.283. It also gave a relative viability ([4]; first compound 4 µM) of 0.231.
